Test results reported in patent publication US10526316B2, “Quinoxaline and pyridopyrazine derivatives as PI3Kβ inhibitors” (Janssen Pharmaceutica NV, priority 2015, dated 2020).
Read-outs that look alike come from different tables or passages of the source.

How the values were obtained:
PI3Kβ = biological target: T1, PI3Kβ (Homo sapiens, UniProt P42338); assay: Enzyme binding assay (KINOMEscan, DiscoveRx); conditions: PIK3Cβ_h, read-out: Kd PIK3Cβ_h
T1 construct: purchased DiscoveRx Corporation, San Diego (contract service, KINOMEscan)
In short: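 Kinase binding affinities were measured with KINOMEscan technology. Results are given as Kd, the inhibitor binding constant, in nM.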

PI3Kδ = biological target: T2, PI3Kδ (Homo sapiens, UniProt O00329); assay: Enzyme binding assay (KINOMEscan, DiscoveRx); conditions: PIK3Cδ_h
T2 construct: purchased DiscoveRx Corporation, San Diego (contract service, KINOMEscan)
T2 sequence (O00329 1-1044): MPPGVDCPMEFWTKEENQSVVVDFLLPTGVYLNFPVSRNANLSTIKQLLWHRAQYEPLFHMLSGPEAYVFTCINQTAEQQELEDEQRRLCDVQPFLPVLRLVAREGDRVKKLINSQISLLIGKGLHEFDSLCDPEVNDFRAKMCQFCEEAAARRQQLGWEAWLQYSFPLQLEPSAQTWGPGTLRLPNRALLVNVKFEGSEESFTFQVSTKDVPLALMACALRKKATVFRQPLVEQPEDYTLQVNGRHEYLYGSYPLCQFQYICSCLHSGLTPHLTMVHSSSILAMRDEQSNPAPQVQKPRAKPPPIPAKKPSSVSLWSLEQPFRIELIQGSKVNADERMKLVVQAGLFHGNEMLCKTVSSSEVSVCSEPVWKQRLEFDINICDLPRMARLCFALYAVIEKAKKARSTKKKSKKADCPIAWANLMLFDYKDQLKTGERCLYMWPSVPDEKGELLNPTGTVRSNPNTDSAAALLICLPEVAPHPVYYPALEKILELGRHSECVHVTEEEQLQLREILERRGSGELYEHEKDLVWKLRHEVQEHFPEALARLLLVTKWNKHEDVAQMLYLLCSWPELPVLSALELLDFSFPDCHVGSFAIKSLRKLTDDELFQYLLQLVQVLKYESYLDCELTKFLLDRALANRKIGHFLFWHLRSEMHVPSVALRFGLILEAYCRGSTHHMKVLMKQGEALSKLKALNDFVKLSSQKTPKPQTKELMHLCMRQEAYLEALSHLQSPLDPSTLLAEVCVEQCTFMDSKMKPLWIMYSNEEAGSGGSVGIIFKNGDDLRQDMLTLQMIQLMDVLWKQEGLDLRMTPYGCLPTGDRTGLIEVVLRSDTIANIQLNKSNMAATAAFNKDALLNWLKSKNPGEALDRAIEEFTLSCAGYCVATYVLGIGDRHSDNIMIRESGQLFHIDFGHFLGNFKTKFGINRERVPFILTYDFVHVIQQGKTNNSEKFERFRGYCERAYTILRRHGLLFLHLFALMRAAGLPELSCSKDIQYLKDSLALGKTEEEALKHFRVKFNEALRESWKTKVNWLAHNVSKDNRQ
In short: (§1)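 Binding affinities were measured on the KINOMEscan platform.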

kinase enzymes [1] = biological target: T3, kinase enzymes (Homo sapiens, UniProt P42336); assay: Enzyme binding assay (KINOMEscan, DiscoveRx), further kinases of Table A; conditions: PIK3Cα_h
T3 construct: purchased DiscoveRx Corporation, San Diego (contract service, KINOMEscan)
In short: as §1

kinase enzymes [2] = biological target: T4, kinase enzymes (Homo sapiens, UniProt P42345); assay: as above; conditions: MTOR_h
T4 construct: purchased DiscoveRx Corporation, San Diego (contract service, KINOMEscan)
In short: as §1

kinase enzymes [3] = biological target: T5, kinase enzymes (Homo sapiens, UniProt P48736); assay: as above; conditions: PIK3Cγ_h
T5 construct: purchased DiscoveRx Corporation, San Diego (contract service, KINOMEscan)
In short: as §1

[4] = test system: Akt phosphorylated at Ser473 in PC-3 cells; assay: Cellular assay: phosphorylation of Akt at Ser473 in PC-3 cells (MSD ELISA); assay type: cell-based; conditions: Homo sapiens, PC-3, 1 h, read-out: IC50 pAkt_S473
In short: (§2)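 PC-3 cells were exposed to compound or 0.3% DMSO for 60 min at 37° C, 5% CO2, then lysed in ice-cold buffer. Phospho-Akt was captured on site-specific antibody-coated plates and detected with Sulfo-tag anti-total Akt by electrochemiluminescence. IC50 values came from five-concentration response curves.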

[5] = test system: Akt phosphorylated at Thr308 in PC-3 cells; assay: Cellular assay: phosphorylation of Akt at Thr308 in PC-3 cells (MSD ELISA); assay type: cell-based; conditions: Homo sapiens, PC-3, 1 h, read-out: IC50 pAkt_Thr308
In short: as §2

[6] = PC-3 cells, 60 min compound incubation, MSD ELISA

T3 sequence (P42336 whole entry): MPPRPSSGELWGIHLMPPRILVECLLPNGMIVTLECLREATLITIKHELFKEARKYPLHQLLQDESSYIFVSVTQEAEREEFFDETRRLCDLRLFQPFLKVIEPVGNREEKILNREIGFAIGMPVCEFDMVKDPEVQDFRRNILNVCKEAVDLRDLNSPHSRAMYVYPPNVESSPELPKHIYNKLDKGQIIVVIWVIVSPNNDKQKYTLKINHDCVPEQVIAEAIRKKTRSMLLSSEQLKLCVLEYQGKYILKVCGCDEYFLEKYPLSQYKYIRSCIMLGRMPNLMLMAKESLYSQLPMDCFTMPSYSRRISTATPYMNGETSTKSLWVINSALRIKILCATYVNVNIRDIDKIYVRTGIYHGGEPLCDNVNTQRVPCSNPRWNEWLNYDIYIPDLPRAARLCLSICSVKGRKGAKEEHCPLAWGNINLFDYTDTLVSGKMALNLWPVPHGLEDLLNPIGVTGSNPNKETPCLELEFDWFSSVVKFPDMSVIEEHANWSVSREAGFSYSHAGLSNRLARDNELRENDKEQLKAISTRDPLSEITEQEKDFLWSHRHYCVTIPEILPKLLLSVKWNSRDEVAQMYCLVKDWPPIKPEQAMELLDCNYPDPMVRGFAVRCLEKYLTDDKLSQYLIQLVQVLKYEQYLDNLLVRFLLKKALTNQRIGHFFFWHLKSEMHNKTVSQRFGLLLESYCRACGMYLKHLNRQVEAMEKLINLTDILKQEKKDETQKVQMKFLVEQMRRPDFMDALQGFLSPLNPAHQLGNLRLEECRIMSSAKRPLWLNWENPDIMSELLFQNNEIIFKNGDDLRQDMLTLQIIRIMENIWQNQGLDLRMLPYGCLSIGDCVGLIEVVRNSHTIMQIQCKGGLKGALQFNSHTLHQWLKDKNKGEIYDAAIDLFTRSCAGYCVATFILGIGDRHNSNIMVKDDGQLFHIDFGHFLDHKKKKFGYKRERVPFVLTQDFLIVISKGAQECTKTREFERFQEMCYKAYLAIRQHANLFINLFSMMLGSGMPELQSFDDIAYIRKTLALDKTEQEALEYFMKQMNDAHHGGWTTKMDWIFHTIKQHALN
T1 sequence (P42338 whole entry): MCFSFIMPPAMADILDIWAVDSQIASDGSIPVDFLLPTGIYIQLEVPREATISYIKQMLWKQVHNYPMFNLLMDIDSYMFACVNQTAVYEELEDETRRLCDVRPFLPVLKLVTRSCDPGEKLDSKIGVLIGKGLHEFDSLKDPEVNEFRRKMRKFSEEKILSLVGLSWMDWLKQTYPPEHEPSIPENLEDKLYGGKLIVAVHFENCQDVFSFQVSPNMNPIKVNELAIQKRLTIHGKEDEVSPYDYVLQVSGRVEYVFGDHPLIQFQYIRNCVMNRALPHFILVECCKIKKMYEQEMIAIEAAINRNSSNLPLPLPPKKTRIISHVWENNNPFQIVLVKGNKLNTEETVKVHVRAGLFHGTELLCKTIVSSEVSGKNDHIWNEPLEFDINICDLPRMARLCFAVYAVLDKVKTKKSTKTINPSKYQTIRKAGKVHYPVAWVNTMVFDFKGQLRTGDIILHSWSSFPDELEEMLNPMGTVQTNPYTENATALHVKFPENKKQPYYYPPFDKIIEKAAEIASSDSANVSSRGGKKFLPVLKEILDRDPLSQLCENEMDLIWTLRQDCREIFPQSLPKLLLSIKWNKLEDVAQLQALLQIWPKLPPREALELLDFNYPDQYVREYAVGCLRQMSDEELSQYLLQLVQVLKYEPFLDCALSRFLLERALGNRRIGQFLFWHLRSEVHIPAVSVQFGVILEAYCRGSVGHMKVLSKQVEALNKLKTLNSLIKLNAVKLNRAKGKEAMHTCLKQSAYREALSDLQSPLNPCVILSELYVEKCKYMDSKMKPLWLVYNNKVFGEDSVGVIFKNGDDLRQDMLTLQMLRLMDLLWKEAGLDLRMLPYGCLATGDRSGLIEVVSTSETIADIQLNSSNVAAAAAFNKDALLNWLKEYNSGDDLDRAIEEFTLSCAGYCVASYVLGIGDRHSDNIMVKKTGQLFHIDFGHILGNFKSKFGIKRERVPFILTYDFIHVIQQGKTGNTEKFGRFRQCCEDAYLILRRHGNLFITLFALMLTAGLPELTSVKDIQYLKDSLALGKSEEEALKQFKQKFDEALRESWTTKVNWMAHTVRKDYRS
T5 sequence (P48736 whole entry): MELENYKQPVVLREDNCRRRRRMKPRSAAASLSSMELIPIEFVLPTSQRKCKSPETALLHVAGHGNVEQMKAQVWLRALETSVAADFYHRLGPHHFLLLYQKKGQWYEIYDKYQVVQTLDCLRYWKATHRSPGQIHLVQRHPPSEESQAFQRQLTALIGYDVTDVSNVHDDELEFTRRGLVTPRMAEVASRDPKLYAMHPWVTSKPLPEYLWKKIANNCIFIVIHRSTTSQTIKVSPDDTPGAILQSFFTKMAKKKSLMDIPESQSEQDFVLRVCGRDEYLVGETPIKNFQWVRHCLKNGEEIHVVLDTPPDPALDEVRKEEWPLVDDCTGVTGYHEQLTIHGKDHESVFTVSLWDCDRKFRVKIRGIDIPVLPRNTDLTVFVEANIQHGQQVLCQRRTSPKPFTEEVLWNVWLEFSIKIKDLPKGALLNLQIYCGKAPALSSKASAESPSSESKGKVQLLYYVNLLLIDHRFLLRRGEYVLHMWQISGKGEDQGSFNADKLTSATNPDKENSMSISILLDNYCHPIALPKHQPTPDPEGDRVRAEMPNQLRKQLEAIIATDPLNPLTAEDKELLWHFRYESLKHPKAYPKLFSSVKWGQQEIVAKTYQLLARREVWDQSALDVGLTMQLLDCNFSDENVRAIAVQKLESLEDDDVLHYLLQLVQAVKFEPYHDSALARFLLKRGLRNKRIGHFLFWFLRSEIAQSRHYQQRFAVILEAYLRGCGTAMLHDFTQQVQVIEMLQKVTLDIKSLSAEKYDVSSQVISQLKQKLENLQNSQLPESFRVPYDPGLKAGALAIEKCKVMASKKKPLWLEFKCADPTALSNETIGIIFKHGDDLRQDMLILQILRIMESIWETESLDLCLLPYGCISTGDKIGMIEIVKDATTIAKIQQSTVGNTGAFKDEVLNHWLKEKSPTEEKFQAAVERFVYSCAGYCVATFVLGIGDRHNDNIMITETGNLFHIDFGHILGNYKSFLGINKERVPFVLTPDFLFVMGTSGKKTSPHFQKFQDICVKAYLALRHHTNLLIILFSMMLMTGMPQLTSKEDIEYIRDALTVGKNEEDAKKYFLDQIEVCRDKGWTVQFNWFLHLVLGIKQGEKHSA

SMILES	Kd (PI3Kβ) [nM]	Kd (PI3Kδ) [nM]	Kd (kinase enzymes [1]) [nM]	Kd (kinase enzymes [2]) [nM]	Kd (kinase enzymes [3]) [nM]	melting point [°C]	IC50 [4] [nM]	IC50 [5] [nM]	IC50 [4, 6] [nM]	IC50 [5, 6] [nM]
CNCCN(C)C(=O)c1cc(C2CCCN2c2cc(F)cc(F)c2)c2nc(N3CCOCC3)cnc2c1 (stereo not drawn) [Compound 18]	0.1	1				80	1	0.3		
CN(C)C(=O)c1cc(C2CCCN2c2cc(F)cc(F)c2)c2nc(N3CCOCC3)cnc2c1 (stereo not drawn) [Compound 26]	2	117	174		1320	80			4	~1.35
CC(c1cc(CO)cc2ncc(N3CCOCC3)nc12)N(C)c1cccc(F)c1 (stereo not drawn) [Compound 111]	16	1820	6030		1480	80			389	162
C[C@H](Nc1cccc(F)c1)c1cc(C(=O)NCCO)cc2ncc(N3CCOCC3)nc12 [Compound 118]	204	10200	14200		2850	237			> 513	> 513
CC(Nc1cc(F)cc(F)c1)c1cc(C(=O)NCCN(C)C)cc2ncc(N3CCOCC3)nc12 (stereo not drawn) [Compound 183]	0.1		2510		1740	145			6	3
C[C@@H](Nc1cc(F)cc(F)c1)c1cc(C(=O)NCCN(C)C)cc2ncc(N3CCOCC3)nc12 [Compound 184]	0.2		599	18900	994	157			2	2
C[C@H](Nc1cc(F)cc(F)c1)c1cc(C(=O)NCCN(C)C)cc2ncc(N3CCOCC3)nc12 [Compound 185]	29		5750		4270	152			~331	148
COC(=O)c1cc(C(C)Nc2ccc(C)c(F)c2)c2nc(N3CCOCC3)cnc2c1 (stereo not drawn) [Compound 293]	> 30200	> 30200	> 30200	> 30200	> 30200	186				
Cc1c(F)cccc1NCc1cc(C(=O)NCCN(C)C)cc2ncc(N3CCOCC3)nc12 [Compound 328]						98			9	9

Next, values leading:

Kd (PI3Kβ) [nM]	Kd (PI3Kδ) [nM]	Kd (kinase enzymes [1]) [nM]	Kd (kinase enzymes [2]) [nM]	Kd (kinase enzymes [3]) [nM]	melting point [°C]	IC50 [4] [nM]	IC50 [5] [nM]	IC50 [4, 6] [nM]	IC50 [5, 6] [nM]	SMILES
324	17400	23400	> 30200	8130	123					[2H]C([2H])(O)C([2H])([2H])NC(=O)c1cc(C(C)Nc2cccc(F)c2)c2nc(N3CCOCC3)cnc2c1 (single isomer, unassigned) [Compound 408b]
1320	11500	10700	> 30200	14100	144					CC(Nc1ccc(F)c(F)c1)c1cc(C(=O)NC2CCNC2)cc2ncc(N3CCOCC3)nc12 (stereo not drawn) [Compound 325a]
21	2820	3980	20400	14100	80					CCOC(=O)CNC(=O)c1cc(C(C)Nc2cccc(F)c2)c2nc(N3CCOCC3)cnc2c1 (stereo not drawn) [Compound 392a]
